# Experimental data from the supplement of paper PMC9663587.
# How the values were obtained:
# [1] = compound: CC1(CCN(CC1)C2=CN=C(C(=N2)N)C3=C(C(=CC=C3)Cl)Cl)N [SHP099]
# [2] = compound: NC1(C(=O)N[C@@H](CCO)c2ccc(Cl)cc2)CCN(c2nc[nH]c3nccc2-3)CC1 [AZD5363]
# [3] = compound: CC(=O)c1c(C)c2cnc(Nc3ccc(N4CCN(CCOCCOCCOCCNC(=O)COc5cccc6c5C(=O)N(C5CCC(=O)NC5=O)C6=O)CC4)cn3)nc2n(C2CCCC2)c1=O [BSJ-03-123]
# [4] = compound: C=CC(=O)Nc1ccc(C(=O)Nc2[nH]nc3c2CN(C(=O)N[C@H](CN(C)C)c2ccccc2)C3(C)C)cc1 [YKL-5-124]; assay: GR value, 72 h; higher = faster growth (1 = untreated, <0 = killing);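 also: breast cancer and non-malignant breast epithelial lines, nine half-log doses, viable cells counted by Hoechst and LIVE/DEAD dye imaging versus time-zero plates and DMSO controls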
# [5] = compound: CN(C)C/C=C/C(=O)Nc1ccc(C(=O)Nc2cccc(Nc3ncc(Cl)c(-c4c[nH]c5ccccc45)n3)c2)cc1 [THZ1]; assay: as above
# [6] = compound: CN1CC[C@H](c2c(O)cc(O)c3c(=O)cc(-c4ccccc4Cl)oc23)[C@H](O)C1 [Flavopiridol]; assay: as above
# [7] = compound: CN(C)C/C=C/C(=O)Nc1ccc(C(=O)N2CCC[C@@H](Nc3ncc(Cl)c(-c4c[nH]c5ccccc45)n3)C2)cc1 [THZ531]; assay: as above
# [8] = compound: CN(C)C(=O)c1cc2cnc(Nc3ccc(N4CCNCC4)cn3)nc2n1C1CCCC1 [LEE011/Ribociclib]; assay: as above
# [9] = compound: CC(=O)O[C@H]1C(=O)[C@@]2(C)[C@H]([C@H](OC(=O)c3ccccc3)[C@]3(O)C[C@H](OC(=O)[C@H](O)[C@@H](NC(=O)c4ccccc4)c4ccccc4)C(C)=C1C3(C)C)[C@]1(OC(C)=O)CO[C@@H]1C[C@@H]2O [Paclitaxel]
# [10] = compound: O=C(CCCCCCC(=O)Nc1ccccc1)NO [Vorinostat]
# [11] = compound: Nc1cc(C(F)(F)F)c(-c2cc(N3CCOCC3)nc(N3CCOCC3)n2)cn1 [Buparlisib/NVP-BKM120]
# [12] = compound: CCN1CCN(Cc2ccc(Nc3ncc(F)c(-c4cc(F)c5nc(C)n(C(C)C)c5c4)n3)nc2)CC1
# [13] = compound: CCc1cnn2c(NCc3ccc[n+]([O-])c3)cc(N3CCCC[C@H]3CCO)nc12
# [14] = compound: CC(=O)c1c(C)c2cnc(Nc3ccc(N4CCNCC4)cn3)nc2n(C2CCCC2)c1=O; assay: GR value, 72 h; higher = faster growth (1 = untreated, <0 = killing);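 also: breast cancer and non-malignant breast epithelial lines, nine half-log doses, viable cells counted by Hoechst and LIVE/DEAD dye imaging versus time-zero plates and DMSO controls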
# [15] = compound: CCN1CCN(Cc2ccc(Nc3ncc(F)c(-c4cc(F)c5nc(C)n(C(C)C)c5c4)n3)nc2)CC1; assay: as above
# [16] = compound: CCc1cnn2c(NCc3ccc[n+]([O-])c3)cc(N3CCCC[C@H]3CCO)nc12; assay: as above
# 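For GR50, 72 h in this document: breast cancer and non-malignant breast epithelial cell lines, Deep Dye Drop or Dye Drop imaging, nine half-log doses, GR normalized to time-zero plates and DMSO-only controls.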
cell line,measurement,setting,value
PDX1206,"GR50, 72 h",[1],> 10 µM
same,"GR50, 72 h",[2],0.457 µM
same,"GR50, 72 h",[3],4.35 µM
same,GR value,[4]; 0.001 µM,0.821 GR
same,GR value,[4]; 0.003162 µM,0.683 GR
same,GR value,[4]; 0.01 µM,0.588 GR
same,GR value,[4]; 0.03162 µM,0.519 GR
same,GR value,[4]; 0.1 µM,0.461 GR
same,GR value,[4]; 0.3162 µM,0.444 GR
same,GR value,[4]; 1 µM,0.323 GR
same,GR value,[4]; 3.162 µM,0.205 GR
same,GR value,[4]; 10 µM,-0.502 GR
same,GR value,[5]; 0.0001 µM,1.05 GR
same,GR value,[5]; 0.0003162 µM,1.03 GR
same,GR value,[5]; 0.001 µM,0.987 GR
same,GR value,[5]; 0.003162 µM,0.977 GR
same,GR value,[5]; 0.01 µM,0.933 GR
same,GR value,[5]; 0.03162 µM,0.351 GR
same,GR value,[5]; 0.1 µM,-0.278 GR
same,GR value,[5]; 0.3162 µM,-0.408 GR
same,GR value,[5]; 1 µM,-0.536 GR
same,GR value,[6]; 0.0001 µM,1.09 GR
same,GR value,[6]; 0.0003162 µM,0.867 GR
same,GR value,[6]; 0.001 µM,0.803 GR
same,GR value,[6]; 0.003162 µM,0.812 GR
same,GR value,[6]; 0.01 µM,1.03 GR
same,GR value,[6]; 0.03162 µM,0.485 GR
same,GR value,[6]; 0.1 µM,0.393 GR
same,GR value,[6]; 0.3162 µM,-0.402 GR
same,GR value,[6]; 1 µM,-0.571 GR
same,GR value,[7]; 0.0001 µM,1.14 GR
same,GR value,[7]; 0.0003162 µM,0.992 GR
same,GR value,[7]; 0.001 µM,1.01 GR
same,GR value,[7]; 0.003162 µM,1.05 GR
same,GR value,[7]; 0.01 µM,1.02 GR
same,GR value,[7]; 0.03162 µM,0.9 GR
same,GR value,[7]; 0.1 µM,-0.371 GR
same,GR value,[7]; 0.3162 µM,-0.273 GR
same,GR value,[7]; 1 µM,-0.29 GR
same,GR value,[8]; 0.001 µM,0.899 GR
same,GR value,[8]; 0.003162 µM,0.915 GR
same,GR value,[8]; 0.01 µM,0.885 GR
same,GR value,[8]; 0.03162 µM,0.915 GR
same,GR value,[8]; 0.1 µM,0.758 GR
same,GR value,[8]; 0.3162 µM,0.817 GR
same,GR value,[8]; 1 µM,0.998 GR
same,GR value,[8]; 3.162 µM,0.753 GR
same,GR value,[8]; 10 µM,0.685 GR
ZR7530,"GR50, 72 h",[1],> 10 µM
same,"GR50, 72 h",[9],0.00474 µM
same,"GR50, 72 h",[10],0.844 µM
same,"GR50, 72 h",[11],0.534 µM
same,"GR50, 72 h",[2],0.192 µM
same,"GR50, 72 h",[12],0.00886 µM
same,"GR50, 72 h",[13],0.0163 µM
same,"GR50, 72 h",[3],0.58 µM
same,GR value,[14]; 0.0003162 µM,1.08 GR
same,GR value,[14]; 0.001 µM,1.08 GR
same,GR value,[14]; 0.003162 µM,1.06 GR
same,GR value,[14]; 0.01 µM,0.858 GR
same,GR value,[14]; 0.03162 µM,0.665 GR
same,GR value,[14]; 0.1 µM,0.482 GR
same,GR value,[14]; 0.3162 µM,0.321 GR
same,GR value,[14]; 1 µM,0.451 GR
same,GR value,[14]; 3.162 µM,0.253 GR
same,GR value,[4]; 0.001 µM,0.344 GR
same,GR value,[4]; 0.003162 µM,0.254 GR
same,GR value,[4]; 0.01 µM,0.245 GR
same,GR value,[4]; 0.03162 µM,0.309 GR
same,GR value,[4]; 0.1 µM,0.197 GR
same,GR value,[4]; 0.3162 µM,0.138 GR
same,GR value,[4]; 1 µM,0.176 GR
same,GR value,[4]; 3.162 µM,0.177 GR
same,GR value,[4]; 10 µM,-0.625 GR
same,GR value,[5]; 0.0001 µM,0.924 GR
same,GR value,[5]; 0.0003162 µM,1.19 GR
same,GR value,[5]; 0.001 µM,1.07 GR
same,GR value,[5]; 0.003162 µM,0.851 GR
same,GR value,[5]; 0.01 µM,0.985 GR
same,GR value,[5]; 0.03162 µM,0.289 GR
same,GR value,[5]; 0.1 µM,-0.492 GR
same,GR value,[5]; 0.3162 µM,-0.524 GR
same,GR value,[5]; 1 µM,-0.638 GR
same,GR value,[6]; 0.0001 µM,1.03 GR
same,GR value,[6]; 0.0003162 µM,1.14 GR
same,GR value,[6]; 0.001 µM,1.04 GR
same,GR value,[6]; 0.003162 µM,0.795 GR
same,GR value,[6]; 0.01 µM,0.93 GR
same,GR value,[6]; 0.03162 µM,1.13 GR
same,GR value,[6]; 0.1 µM,0.766 GR
same,GR value,[6]; 0.3162 µM,0.119 GR
same,GR value,[6]; 1 µM,-0.662 GR
same,GR value,[7]; 0.0001 µM,0.959 GR
same,GR value,[7]; 0.0003162 µM,1.15 GR
same,GR value,[7]; 0.001 µM,0.926 GR
same,GR value,[7]; 0.003162 µM,0.99 GR
same,GR value,[7]; 0.01 µM,1.02 GR
same,GR value,[7]; 0.03162 µM,0.98 GR
same,GR value,[7]; 0.1 µM,-0.379 GR
same,GR value,[7]; 0.3162 µM,-0.732 GR
same,GR value,[7]; 1 µM,-0.42 GR
same,GR value,[8]; 0.001 µM,0.854 GR
same,GR value,[8]; 0.003162 µM,0.695 GR
same,GR value,[8]; 0.01 µM,0.687 GR
same,GR value,[8]; 0.03162 µM,0.857 GR
same,GR value,[8]; 0.1 µM,0.607 GR
same,GR value,[8]; 0.3162 µM,0.463 GR
same,GR value,[8]; 1 µM,0.434 GR
same,GR value,[8]; 3.162 µM,0.443 GR
same,GR value,[8]; 10 µM,0.41 GR
same,GR value,[15]; 0.001 µM,1.05 GR
same,GR value,[15]; 0.003162 µM,1.03 GR
same,GR value,[15]; 0.01 µM,0.769 GR
same,GR value,[15]; 0.03162 µM,0.57 GR
same,GR value,[15]; 0.1 µM,0.322 GR
same,GR value,[15]; 0.3162 µM,0.276 GR
same,GR value,[15]; 1 µM,0.282 GR
same,GR value,[15]; 3.162 µM,0.229 GR
same,GR value,[15]; 10 µM,0.127 GR
same,GR value,[16]; 0.0001 µM,0.895 GR
same,GR value,[16]; 0.0003162 µM,0.995 GR
same,GR value,[16]; 0.001 µM,1.06 GR
same,GR value,[16]; 0.003162 µM,0.953 GR
same,GR value,[16]; 0.01 µM,0.909 GR
same,GR value,[16]; 0.03162 µM,-0.42 GR
same,GR value,[16]; 0.1 µM,-0.601 GR
same,GR value,[16]; 0.3162 µM,-0.696 GR
same,GR value,[16]; 1 µM,-0.728 GR
